Data from patent US20090307784A1, “Methods of Analysing Cell Behaviour” (Medical Research Council, priority 2005, published 2009).

Key:
BCC = settings: topical, irradiated patched heterozygote mice; cited from earlier work
[1] = system: BCC and squamous carcinoma (SCC); settings: cited from earlier work
[2] = system: transit amplifying cell clones and stem cell clones in tail skin epidermis; assay: Topical treatment of tail skin of induced Ahcre^ERT R26^EYFP/wt mice, clonal fate by wholemount confocal imaging; format: in vivo, mouse; settings: applied topically to tail skin, compared with vehicle only control
Experimental: The generation of Ahcre^ERT and R26^EYFP/EYFP mice has been described previously (Kemp et al (2004) Nucleic Acids Res 32, e92; Srinivas et al (2001) BMC Dev Biol 1, 4). To induce ere expression AhcreERT R26^EYFP/wt heterozygote animals were given a single intraperitoneal injection of 80 mg/kg β-napthoflavone (SIGMA) and 1 mg tamoxifen free base (MP Biomedicals) dissolved in corn oil. To prepare epidermal wholemounts, mice were killed, and then tail skin was cut into 0.5 cm sections and incubated in 5 mM EDTA/PBS for 4 h at 37 C. Epidermis was then peeled of the dermis and fixed in 4% paraformaldehyde for 1 h at room temperature. Fixed epidermal sheets were stored in PBS at 4C.
Epidermal sheets were blocked and permeabilized by incubation in PB buffer containing 0.5% BSA 0.25% Fish skin gelatin, 0.5% Triton X-100 and Goat/Donkey/Rat serum as appropriate in PBS for 1 h. Primary antibodies were diluted in PB buffer and epidermal sections incubated overnight at room temperature on rocking platform then washed 4×1 h in PBS/0.2% Tween 20. Secondary antibodies were diluted 1:250 in PB buffer, sections incubated overnight, then washed 4×1 h. Samples were rinsed in distilled water and mounted. […]

Gli1 = settings: cultured keratinocytes; cited from earlier work

In the case of `CCOC(=O)c1ccc(C#Cc2ccc3c(c2)C(C)(C)CCS3)nc1` [tazarotene], the “number of BCC induced by UV or ionizing radiation” value (BCC) is listed as “substantial decrease in the number of BCC” and the “effect on BCC” value ([1]; topical treatment, clinical studies) is listed as “regression of BCC”.
In the case of `COc1cc(C)c(/C=C/C(C)=C/C=C/C(C)=C/C(=O)O)c(C)c1C` [acitretin], the “effect on SCC and BCC development” value ([1]; oral, renal transplant patients) is given as “may inhibit SCC and BCC development”.
For `CC1=C(/C=C/C(C)=C/C=C/C(C)=C/C(=O)O)C(C)(C)CCC1` [ATRA, all trans retinoic acid], the “effect on stem cell clones” value [2] is given as “expansion of stem cell clones”, the “effect on transit amplifying cell clones” value [2] is given as “rapid depletion of transit amplifying cell clones” and the “effect on Gli1” value (Gli1) is given as “inhibition of Gli1”.
In the case of `CC1=C(/C=C/C(C)=C/C=C/C(C)=C/CO)C(C)(C)CCC1` [retinol], the “benefit in chemoprevention of BCC and squamous carcinoma (SCC)” value ([1]; clinical studies) is listed as “no benefit”.
In the case of `CC1=C(/C=C/C(C)=C/C=C/C(C)=C\C(=O)O)C(C)(C)CCC1` [isotretinoin], the “benefit in chemoprevention of BCC and squamous carcinoma (SCC)” value ([1]; clinical studies) is given as “no benefit”.
